Calls of active or inactive are those of the source. No cut-off for these calls is given here.

Data on 1 compound can be found in ChEMBL document CHEMBL1146424, “New Steroidal Alkaloids from the Roots of Buxus sempervirens” (1997).

Test [1] has as its system Lemna minor. The experiment in a line: Phytotoxicity against Lemna minor L. at 50 ppm. Type of test: functional.
The subject of a further test is Shigella flexneri. The test can be described thus: Antibacterial activity against Shigella flexnerii at 200 ug/100 uL by agar well diffusion assay. The format is functional, organism-based. (A growth-free zone around the sample is the usual read-out of agar diffusion tests.)
A further test concerns Proteus mirabilis. The experiment in a line: Antibacterial activity against Proteus mirabilis at 200 ug/100 uL by agar well diffusion assay. The format is functional, organism-based.
Test [2] relates to Lemna minor. The test can be described thus: Phytotoxicity against Lemna minor L. at 5 ppm. Type of test: functional.
The test system of test [3] is Lemna minor. The experiment in a line: Phytotoxicity against Lemna minor L. at 500 ppm. Type of test: functional.
The test system of a further test is Microsporum canis. The experiment in a line: Antifungal activity against Microsporum canis at […] after 7 days by tube dilution method. The format is functional, organism-based.
The next test relates to Epidermophyton floccosum. The experiment in a line: Antifungal activity against Epidermophyton floccosum at […] after 7 days by tube dilution method. The format is functional, organism-based.
The test system of a further test is Proteus vulgaris. The experiment in a line: Antibacterial activity against Proteus vulgaris at 200 ug/100 uL by agar well diffusion assay. Type of test: functional, organism-based.
In the next test the test system is Stachybotrys chartarum. The experiment in a line: Antifungal activity against Stachybotrys atra at […] after 7 days by tube dilution method. The format is functional, organism-based.
The test system of the next test is Escherichia coli. The experiment in a line: Antibacterial activity against Escherichia coli at 200 ug/100 uL by agar well diffusion assay. Type of test: functional, organism-based.
In the next test the test system is Salmonella typhi. The test can be described thus: Antibacterial activity against Salmonella typhi at 200 ug/100 uL by agar well diffusion assay. Type of test: functional, organism-based. Conditions: Salmonella enterica subsp. enterica serovar Typhi.

For the compound `C[C@@H]([C@H]1[C@H](O)C[C@@]2(C)[C@@H]3CC[C@@H]4C(=CC[C@H](NC(=O)c5ccccc5)C4(C)C)CC3=CC[C@]12C)N(C)C` [16ALPHA-HYDROXY-NA-BENZOYLBUXADINE], the figures for the Activity in the test with Lemna minor [1], in the test on Lemna minor [2] and in the test with Lemna minor [3] were 28.6%, 20.3% and 46%, respectively. Also, the result in the test with Shigella flexneri, with Proteus mirabilis, in the test with Microsporum canis, in the test on Epidermophyton floccosum, in the test on Proteus vulgaris and with Stachybotrys chartarum was Active. Moreover, the result in the test with Escherichia coli and with Salmonella typhi was Active.
